# According to patent US20240381872A1, “SUBSTITUTED 2,3-DIHYDRO[1,3]THIAZOLO[4,5-B]PYRIDINES, SALTS THEREOF AND THEIR USE AS HERBICIDALLY ACTIVE SUBSTANCES” (BAYER AKTIENGESELLSCHAFT, priority 2021, published 2024):
# Assays:
# Format in all cases: in vivo
# [1] = tested on: Alopecurus myosuroides (ALOMY); experiment: Herbicidal post-emergence action, section B (Table B2); conditions: rated visually about 3 weeks after treatment vs untreated controls, 100% = plants have died, 0% = like control plants
# Procedure: (§1) Seeds of mono- and dicotyledonous weed plants were placed in plastic pots in sandy loam soil (doubly sown with in each case one species of mono- or dicotyledonous weed plants per pot), covered with soil and cultivated in a greenhouse under controlled growth conditions. 2 to 3 weeks after sowing, the test plants were treated at the one-leaf stage. The compounds of the invention, formulated in the form of wettable powders (WP) or as emulsion concentrates (EC), were applied onto the green parts of the plants as aqueous suspension or emulsion with addition of 0.5% additive at a water application rate of 600 liters per hectare (converted). After the test plants had been kept in the greenhouse under optimum growth conditions for about 3 weeks, the activity of the preparations was rated visually in comparison to untreated controls. For example, 100% activity=the plants have died, 0% activity=like control plants.
# Kochia scoparia (KCHSC) [2] = experiment: Herbicidal post-emergence action, section B (Table B4); conditions: visual rating about 3 weeks after treatment vs untreated controls
# Outline: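 Scores are visual % activity relative to untreated plants (0% = like control, 100% = dead), taken about 3 weeks after spraying. Compounds, as WP or EC in water with 0.5% additive at 600 L/ha, went onto one-leaf-stage weeds grown from seed in sandy loam under greenhouse conditions.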
# Setaria viridis (SETVI) = experiment: Herbicidal post-emergence action, section E (Table E8); conditions: visual assessment ca. 3 weeks after spraying; for pest or weed control at 80 g/ha / pest or weed control at 320 g/ha: Setaria viridis, 504 h, read-out: post-emergence activity against SETVI in %; for pest or weed control at 80 g/ha: application rate 80 g/ha; for post-emergence activity against SETVI in % / pest or weed control at 320 g/ha: application rate 320 g/ha
# Excerpt: (§2) Seeds of mono- and dicotyledonous weed plants and crop plants were sown, in plastic or organic planting pots, in sandy loam, covered with soil and grown in a greenhouse under controlled growth conditions. 2 to 3 weeks after sowing, the test plants were sprayed in the single-leaf stage. The compounds according to the invention, formulated in form of wettable powders (WP) or as emulsifiable concentrates (EC), were sprayed onto the green plant parts as aqueous suspension or emulsion, with the addition of 0.5% of an additive, at an application rate of 600 l of water/ha (converted). The test plants were placed in the greenhouse for ca. 3 weeks under optimum growth conditions, and then the effect of the preparations was assessed visually in comparison with untreated controls (herbicidal effect in percent (%): 100% effect=plants have died off, 0% effect=as control plants).
# Avena fatua (AVEFA) = experiment: Herbicidal pre-emergence action, section C (Table C4); conditions: 504 h, application rate 320 g/ha, visual grading ca. 3 weeks after treatment vs untreated controls, 100% = plants have died off, 0% = as control plants, read-out: pre-emergence activity against AVEFA
# Excerpt: (§3) Seeds of mono- and dicotyledonous weed plants and crop plants were sown, in plastic or organic planting pots, in sandy loam and covered with soil. The compounds according to the invention, formulated in the form of wettable powders (WP) or as emulsifiable concentrates (EC), were applied to the surface of the covering soil as aqueous suspension or emulsion, with the addition of 0.5% of an additive, at an application rate of 600 l of water/ha (converted). Following treatment, the pots were placed in a greenhouse and kept under optimum growth conditions for the test plants. The visual grading of the damage to the test plants was carried out after ca. 3 weeks in comparison to untreated controls (herbicidal effect in percent (%): 100% effect=plants have died off, 0% effect=as control plants).
# [3] = tested on: Matricaria inodora (MATIN); experiment: Herbicidal post-emergence action, section B (Table B6); conditions: visual rating about 3 weeks after treatment vs untreated controls; for pest or weed control at 1280 g/ha: Tripleurospermum inodorum, post-emergence, 504 h, read-out: post-emergence activity against MATIN in %
# Procedure: as §1
# Brassica napus (BRSNW) [4] = experiment: Post-emergence effects on crop plants, section F (Table F5); conditions: application rate 80 g/ha; for crop plant damage (phytotoxicity) in % at 80 g/ha: Brassica napus, 504 h, read-out: post-emergence activity against BRSNW in %
# Outline: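 Percent damage was rated by eye roughly 3 weeks after treatment against untreated plants, where 0% = as control and 100% = died off. Spraying used WP or EC formulations plus 0.5% additive at 600 l water/ha, with rates of 320 g/ha or less. Plants were at the single-leaf stage, sown 2-3 weeks earlier in sandy loam under greenhouse conditions.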
# Oryza sativa (ORYZA) = experiment: Pre-emergence effects on crop plants, section D (Table D3); conditions: application rate 80 g/ha; visual grading after ca. 3 weeks
# Outline: (§4)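 After sowing in sandy loam and covering with soil, pots receive compound applied to the soil surface at rates up to 320 g/ha in 600 l water/ha containing 0.5% additive. Plants then grow under optimum greenhouse conditions. Percent herbicidal effect is rated visually at roughly 3 weeks against untreated pots.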
# Brassica napus (BRSNW) [5] = experiment: Pre-emergence effects on crop plants, section D (Table D5); conditions: application rate 320 g/ha; visual grading after ca. 3 weeks
# Outline: as §4
# Kochia scoparia (KCHSC) [6] = experiment: Herbicidal pre-emergence action, section C (Table C13); conditions: application rate 320 g/ha; visual grading after ca. 3 weeks
# Excerpt: as §3
# Viola tricolor (VIOTR) = experiment: Herbicidal pre-emergence action, section C (Table C9); conditions: visual grading after ca. 3 weeks
# Excerpt: as §3
# Kochia scoparia (KCHSC) [7] = experiment: Herbicidal post-emergence action, section E (Table E11); conditions: visual assessment ca. 3 weeks after spraying
# Excerpt: as §2
smiles,measurement,setting,value
"Cc1cc2c(nc1-c1ccccc1F)NCS2 [Example I-007, 5-(2-fluorophenyl)-6-methyl-2,3-dihydro[1,3]thiazolo[4,5-b]pyridine]",pest or weed control at 320 g/ha,"[1]; Alopecurus myosuroides, post-emergence, 504 h, application rate 320 g/ha, read-out: post-emergence activity against ALOMY",90%
same,pest or weed control at 1280 g/ha,"Kochia scoparia (KCHSC) [2]; Bassia scoparia, post-emergence, 504 h, application rate 1280 g/ha, read-out: post-emergence activity against KCHSC in %",90%
same,pest or weed control at 80 g/ha,Setaria viridis (SETVI),90%
same,pest or weed control at 320 g/ha,Avena fatua (AVEFA),80%
same,pest or weed control at 1280 g/ha,[3]; application rate 1280 g/ha,90%
"Fc1ccccc1-c1nc2c(cc1Br)SCN2 [Example I-001, 6-bromo-5-(2-fluorophenyl)-2,3-dihydro[1,3]thiazolo[4,5-b]pyridine]",crop plant damage (phytotoxicity) in % at 80 g/ha,Brassica napus (BRSNW) [4],20%
same,pest or weed control at 80 g/ha,Setaria viridis (SETVI),90%
same,pre-emergence activity against ORYZA in % (crop plant damage),Oryza sativa (ORYZA),20%
same,pre-emergence activity against BRSNW in % (crop plant damage),Brassica napus (BRSNW) [5],20%
same,pest or weed control at 320 g/ha,Avena fatua (AVEFA),80%
Cc1cc2c(nc1-c1ccccc1F)N(S(=O)(=O)Cc1ccc(F)cc1)CS2 [Example I-122],pre-emergence activity against KCHSC in %,Kochia scoparia (KCHSC) [6],90%
same,post-emergence activity against ALOMY,[1]; application rate 1280 g/ha,90%
same,post-emergence activity against KCHSC in %,Kochia scoparia (KCHSC) [2]; application rate 320 g/ha,90%
same,post-emergence activity against BRSNW in %,Brassica napus (BRSNW) [4]; crop plant damage,0%
same,post-emergence activity against SETVI in %,Setaria viridis (SETVI),80%
same,pre-emergence activity against VIOTR in %,Viola tricolor (VIOTR); application rate 320 g/ha,80%
same,post-emergence activity against KCHSC in %,Kochia scoparia (KCHSC) [7]; application rate 80 g/ha,80%
same,post-emergence activity against MATIN in %,[3]; application rate 1280 g/ha,90%
Cc1cc2c(nc1-c1ccccc1F)N(C(=O)C13CCCC1C(Cl)=NO3)CS2 (centres unmarked) [Example I-104],pre-emergence activity against KCHSC in %,Kochia scoparia (KCHSC) [6],90%
same,post-emergence activity against ALOMY,[1]; application rate 1280 g/ha,90%
same,post-emergence activity against KCHSC in %,Kochia scoparia (KCHSC) [2]; application rate 320 g/ha,90%
same,post-emergence activity against SETVI in %,Setaria viridis (SETVI),90%
same,pre-emergence activity against VIOTR in %,Viola tricolor (VIOTR); application rate 320 g/ha,80%
same,post-emergence activity against KCHSC in %,Kochia scoparia (KCHSC) [7]; application rate 320 g/ha,90%
same,post-emergence activity against MATIN in %,[3]; application rate 1280 g/ha,90%
"CCS(=O)(=O)N1CSc2cc(C)c(-c3ccccc3F)nc21 [Example I-060, 3-(ethylsulfonyl)-5-(2-fluorophenyl)-6-methyl-2,3-dihydro[1,3]thiazolo[4,5-b]pyridine]",pest or weed control at 1280 g/ha,"[1]; Alopecurus myosuroides, post-emergence, 504 h, application rate 1280 g/ha, read-out: post-emergence activity against ALOMY",90%
same,pest or weed control at 320 g/ha,"Kochia scoparia (KCHSC) [2]; Bassia scoparia, post-emergence, 504 h, application rate 320 g/ha, read-out: post-emergence activity against KCHSC in %",90%
same,pest or weed control at 320 g/ha,Setaria viridis (SETVI),90%
same,pest or weed control at 80 g/ha,"Viola tricolor (VIOTR); Viola tricolor, pre-emergence, 504 h, application rate 80 g/ha, read-out: pre-emergence activity against VIOTR in %",90%
same,pest or weed control at 320 g/ha,Avena fatua (AVEFA),90%
same,pest or weed control at 1280 g/ha,[3]; application rate 1280 g/ha,90%
CC(C)C(=O)N1C[S+]([O-])c2cc(Br)c(-c3ccccc3)nc21 (centres unmarked) [Example I-067],crop plant damage (phytotoxicity) in % at 80 g/ha,Brassica napus (BRSNW) [4],0%
same,pest or weed control at 320 g/ha,Setaria viridis (SETVI),80%
same,pre-emergence activity against ORYZA in % (crop plant damage),Oryza sativa (ORYZA),20%
same,pest or weed control at 320 g/ha,"Viola tricolor (VIOTR); Viola tricolor, pre-emergence, 504 h, application rate 320 g/ha, read-out: pre-emergence activity against VIOTR in %",100%
Cc1cc2c(nc1-c1ccccc1F)N(C(=O)C1(C)CC(Cl)=NO1)CS2 (centres unmarked) [Example I-083],post-emergence activity against ALOMY,[1]; application rate 1280 g/ha,90%
same,post-emergence activity against KCHSC in %,Kochia scoparia (KCHSC) [2]; application rate 320 g/ha,90%
same,post-emergence activity against SETVI in %,Setaria viridis (SETVI),80%
same,pre-emergence activity against ORYZA in % (crop plant damage),Oryza sativa (ORYZA),20%
same,pre-emergence activity against VIOTR in %,Viola tricolor (VIOTR); application rate 80 g/ha,90%
same,post-emergence activity against MATIN in %,[3]; application rate 320 g/ha,90%
